Experiment: gradient 5% acetonitrile 3 min, to 50% in 2 min, to 85% in 15 min, held 3 min, 100 µL/min
Details: column: Zorbax Extend-C18 2.1 x 50 mm; eluents: water / acetonitrile, 0.1% formic acid
Procedure, shortened: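 Retention time was recorded from adduct peaks, which were picked computationally and each inspected manually. Pure standards ran in mixtures of ~100 molecules on HPLC coupled to a quadrupole time-of-flight mass spectrometer, in positive and negative ionization mode, through a Zorbax Extend-C18 column (2.1 × 50 mm, 1.8 μm) at 100 μL/min. Eluents were water and acetonitrile, each with 0.1% formic acid.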

Row | Structure (SMILES) | RP-LC retention time
1 | COc1ccc(NC(=O)C2CCc3nc(N4CCOCC4)ncc3C2)cc1F (configuration not stated) | 718 s
2 | CN(C)c1ccc(C(=O)N2CCCC2c2nc(-c3ccccc3)no2)cc1 (configuration not stated) | 986 s
3 | CN(C)C(=O)c1cn(C2CN(S(=O)(=O)c3ccc4c(c3)CCC4)C2)nn1 | 774 s
4 | CC1CCC(NC(=O)C2CCN(C(=O)c3ncn4c3COC(c3ccc(Cl)cc3)C4)CC2)CC1 (configuration not stated) | 880 s
5 | COc1cccc(S(=O)(=O)N2[C@H]3CC[C@@H]2c2cnc(C)nc2C3)c1 | 692 s
6 | CC(C)(C)NCC(O)COc1ccc(NC(=O)NC2CCCCC2)cc1 (configuration not stated) | 628 s
7 | CC1CCCN(C(=O)C2CC(=O)N(c3ccccc3)C2)C1 (configuration not stated) | 786 s
8 | CN(C)C[C@@H]1CN(S(C)(=O)=O)C[C@H]1NC(=O)CC1=CCCCC1 | 602 s
9 | Cc1cc(C(=O)NC2CCCCCC2)n[nH]1 | 724 s
10 | COc1ccc(OC)c(S(=O)(=O)N2CCCC(C(=O)Nc3cccc(C)c3)C2)c1 (configuration not stated) | 952 s
11 | Cc1c(-c2nnc(C3CCC3)o2)c(S(=O)(=O)NCc2ccc(Cl)cc2)c(C)n1C | 1010 s
12 | Cc1cc(-c2nnc(-c3ccc(F)cc3)o2)c(C)n1CC(=O)N1CCCCC1 | 877 s
13 | CCc1nc2cc(-c3noc(-c4ccc(C)c(F)c4)n3)ccc2o1 | 1350 s
14 | N#Cc1cccc(N2C=C(C(=O)N3CCCC3)S(=O)(=O)c3ccc(F)cc32)c1 | 752 s
15 | O=C(CCn1c(N2CCCC2)nc2ccsc2c1=O)N1CCN(c2ccccn2)CC1 | 609 s
16 | Cn1nc(C(=O)N2CCOCC2)c2c1CCN(C(=O)CCC(=O)NC1CCCCCC1)C2 | 652 s
17 | Cc1ccc(-c2noc(-c3nc(Cc4cccc(F)c4)no3)n2)cc1 | 1180 s
18 | CC(C)(C)CC(=O)N1CCc2nc(-c3ccccc3)ncc2C1 | 934 s
19 | CCOC(=O)C1CCN(C(=O)CCCn2c(=O)c3cccn3c3ccc(Br)cc32)CC1 | 974 s
20 | CCN1CCN(C(=O)CN2C(=O)C3CCCCN3c3ccc(S(=O)(=O)N4CCCC4)cc32)CC1 (configuration not stated) | 644 s
21 | Cc1nnc2c(=O)n(CC(=O)NCC3CC3)c3cccnc3n12 | 610 s
22 | CCN1C(=O)Cc2cc(C(=O)N3CCN(c4ccccc4F)CC3)ccc21 | 848 s

Row | Structure (SMILES) | RP-LC retention time
23 | CCOC(=O)c1cc([N+](=O)[O-])sc1NC(=O)CC | 915 s
24 | COCC1CN(C(=O)c2ccc(Br)o2)CCC1(F)F (configuration not stated) | 847 s
25 | COc1ccc(OC)c(CNC(=O)C2CCCN(c3ncnc4c3nc3n4CCCCC3)C2)c1 (configuration not stated) | 746 s
26 | CC(Oc1ccc(F)cc1)C(=O)Nc1ccc(-c2nc(-c3ccc(F)cc3)no2)cc1 (configuration not stated) | 1290 s
27 | Cn1nc(-c2nnc(-c3ccccc3F)o2)c2c1CCN(S(=O)(=O)c1ccc(Cl)s1)C2 | 1010 s
28 | CCCNC(=O)c1nnc(-c2ccc(S(=O)(=O)N3CCCC3)cc2)o1 | 824 s
29 | CNCc1ccc(-c2cc(Cl)ccc2Cl)o1 | 653 s
30 | COc1ccc(-c2nnc(-c3cc(S(N)(=O)=O)ccc3Cl)o2)cc1 | 792 s
31 | C[C@@H]1C(=O)O[C@H]2C[C@@]34[C@H]5C[C@@H](C(C)(C)C)[C@]36[C@@H](OC(=O)[C@@H]6O)O[C@@]4(C(=O)O5)[C@]21O | 715 s
32 | CCN1C(=O)COc2ccc(-c3noc(-c4ccc(OC)cc4OC)n3)cc21 | 1040 s
33 | C[C@H]1CN(C(=O)c2cc(F)cc(F)c2)C[C@@H]1c1nc(-c2cccnc2)no1 | 795 s
34 | CC(=O)N(C)CCc1noc(-c2ccc(C(=O)NCCC(C)C)cc2)n1 | 733 s
35 | CCOC(=O)C1CCN(C(=O)C2c3ccccc3C(=O)N3CCc4cc(OC)c(OC)cc4C23)CC1 (configuration not stated) | 766 s
36 | Cc1nn(-c2cc(N3CCCCC3)ncn2)c(C)c1CCC(=O)N1CCN(c2ccccn2)CC1 | 639 s
37 | O=C1NCCCn2cc(S(=O)(=O)N3CCN(c4ccc(F)cc4)CC3)cc21 | 730 s
38 | COCCC(=O)N1CC(F)(F)C[C@H]1c1nc(C2CC2)no1 | 713 s
39 | CS(=O)(=O)N1CCN(CCNC(=O)NC(c2ccccc2)c2ccccc2)CC1 | 580 s
40 | O=C(CN1CCN(C(=O)Nc2ccc(F)cc2)CC1=O)N1CCCC1 | 615 s
41 | O=C(c1ccco1)N1CCN(S(=O)(=O)c2cc3c4c(c2)CCC(=O)N4CCC3)CC1 | 690 s
42 | O=C(NCCc1csc(-c2cccs2)n1)C1CCN(C(=O)C2CCCC2)CC1 | 782 s
43 | O=C(Nc1cnc(N2CCCC2)nc1)c1ccc(Cl)cc1 | 765 s
44 | CCCNc1cc(N2CCC(CCC(=O)Nc3cc(C)ccc3C)CC2)ncn1 | 608 s

More lines, now with the values ahead:

Row | RP-LC retention time | Structure (SMILES)
45 | 950 s | O=C(Cn1cccc(-c2nc(-c3ccc(F)cc3)no2)c1=O)Nc1ccc(Cl)cc1
46 | 675 s | CN(C)c1nc2ncn3c(=O)n(CC(=O)NCc4ccc(F)cc4)nc3c2s1
47 | 595 s | Cn1cc(CCN2CCC(C(=O)NCc3ccccc3F)CC2)c2cccnc21
48 | 999 s | Cc1nc(-c2cn(C(C)C)c3ncccc23)sc1C(=O)N1CCC(C)CC1
49 | 706 s | Cc1cc(NCc2ccccn2)n2ncc(-c3ccccc3)c2n1
50 | 755 s | COc1ccc(OC)c(CNC(=O)CCC(=O)N2CCCn3nc(-c4cccn4C)cc32)c1
51 | 818 s | O=C(NCc1ccco1)c1ccc(NS(=O)(=O)c2cccc(C(F)(F)F)c2)cc1
52 | 697 s | COc1ccc(NC(=O)NCC(c2cccnc2)c2cn(C)c3ccccc23)c(OC)c1 (configuration not stated)
53 | 1100 s | Cc1ccc(-c2ccc(=O)n(CCc3nc(-c4ccc(F)cc4)no3)n2)cc1C
54 | 644 s | CCOc1ccc(CNC(=O)c2cc(-c3ccncc3)cn2C)cc1
55 | 1070 s | Cc1ccc2[nH]cc(CCNC(=O)c3sc4ncccc4c3-n3cccc3)c2c1
56 | 832 s | CC1Oc2ccccc2OC1C(=O)NCc1ccsc1 (configuration not stated)
57 | 1190 s | Cc1sc(-c2cc(C(F)(F)F)[nH]n2)cc1S(=O)(=O)N1CC=C(c2ccccc2)CC1
58 | 1360 s | Cc1cccc(OCc2nc(C)c(C(=O)Nc3nc(-c4ccc(Cl)cc4)cs3)s2)c1
59 | 837 s | O=C(CSCc1ccccc1)N1CCC(c2nnc(-c3ccco3)s2)CC1
60 | 1060 s | CCc1ccc(-c2noc(Cn3c(=O)n(-c4cccc(OC)c4)c(=O)c4sccc43)n2)cc1
61 | 608 s | CC(NC(=O)c1ccccn1)C(=O)Nc1nc2ccccc2[nH]1 (configuration not stated)
62 | 1320 s | Cc1ccc(-c2nc(Nc3cccc(Cl)c3)sc2C)cc1
63 | 1020 s | O=C(c1cccc(Cl)c1)N1N=C(c2ccco2)CC1c1ccco1 (configuration not stated)
64 | 663 s | O=C(Nc1cc(-c2ccncc2)no1)c1ccccc1
65 | 1030 s | CCOC(=O)c1ccccc1NC(=O)CSc1nnc2c3cc(-c4ccc(F)cc4)nn3ccn12
66 | 715 s | COc1cccc(-c2c(C(=O)O)nnn2-c2ccc(OC)c(OC)c2)c1

Row | RP-LC retention time | Structure (SMILES)
67 | 894 s | Cc1ccc(Cn2c(N3CCCC(C(=O)NCC4CC4)C3)nc3ccsc3c2=O)cc1 (configuration not stated)
68 | 625 s | O=C(c1ccc2nc[nH]c2c1)N1CCCN(c2cc(-c3ccc(Br)cc3)[nH]n2)CC1
69 | 711 s | Cc1ccc(S(=O)(=O)c2nnn3c2nc(N2CCN(c4ccccn4)CC2)c2ccccc23)cc1
70 | 780 s | COc1cccc(NC(=O)Cc2csc3nc(-c4ccc(OC)c(OC)c4)cn23)c1
71 | 999 s | Cc1nc2cc(-c3noc(C(C)NC(=O)c4ccccc4)n3)ccc2n(C2CCCC2)c1=O (configuration not stated)
72 | 809 s | COc1cccc(C2=Nc3cccnc3N(CC(=O)NCc3ccco3)C(=O)C2)c1
73 | 685 s | Cc1cccc(CNC(=O)Cn2c(=O)c3nnc(C)n3c3ncccc32)c1
74 | 836 s | CCC(NC(=O)c1ccc2c(c1)nc1n2CCN(Cc2ccccc2)C1=O)c1cccs1 (configuration not stated)
75 | 792 s | O=C(Cc1ccc(F)cc1)N1CCC2(CC1)N=C(c1ccccc1)NO2
76 | 746 s | COc1cc(-c2nc3ccc(Cl)cn3c2Nc2ccc(Cl)cc2)ccc1O
77 | 658 s | Cc1ccc(NC(=O)N2CCC(N3CCN(Cc4ccccn4)C(=O)C3=O)CC2)cc1Cl
78 | 725 s | Cc1ccc(-c2nc3ccc(C)cn3c2Nc2ccc3c(c2)OCO3)cc1
79 | 655 s | O=S(=O)(c1ccc2c(c1)OCCO2)N(CCc1cccs1)Cc1cccnc1
80 | 654 s | COc1ccc2[nH]c3c(c2c1)CCNC3c1ccc(C)cc1 (configuration not stated)
81 | 799 s | Cc1nc(-c2ccccc2)sc1C(=O)NC1CC1
82 | 767 s | Cc1noc2nc(CCC(=O)NCc3ccccc3F)nc(N3CCCC3)c12
83 | 1100 s | CC1CCN(S(=O)(=O)c2ccc(-c3nnc(C(=O)NCCc4ccccc4)o3)cc2)CC1
84 | 644 s | CCN(CC)C(=O)c1ccc2c(c1)ncn2CCNC(=O)Nc1ccc(Br)cc1
85 | 776 s | Cc1cccc(NC(=O)N2CCN(c3ccc(=O)n(-c4ccccc4)n3)CC2)c1
86 | 672 s | O=C(CN1CCN(Cc2ccc(F)cc2)C1=O)NCCCn1cccn1
87 | 1050 s | Cc1ccc(NS(=O)(=O)c2cn(CC(C)C)c3ncccc23)c(C)c1

Reference: the METLIN SMRT retention time set (Domingo-Almenara et al. 2019)
